From a compilation of properties of binary mixtures (doi:10.1016/j.molliq.2013.09.012) come the findings set out here.

The nature of this data set: xn = mol fraction of the nth substance listed. The note with it: 298.15 K, 101 kPa.

Take `CCCN` + CCCCCC[n+]1ccn(C)c1.F[B-](F)(F)F: the viscosity – broadly, the internal friction of a fluid under shear – reads like this: (x1 = 0.1949) 97.3 mPa·s; (x1 = 0.2959) 69.2 mPa·s; (x1 = 0.3803) 50.3 mPa·s; (x1 = 0.5991) 17.7 mPa·s; (x1 = 0.7005) 10.1 mPa·s; (x1 = 0.8066) 4.466 mPa·s. Also, the viscosity (x1 = 1) is 0.358 mPa·s.

Consider `CCCCCC[n+]1ccn(C)c1.F[B-](F)(F)F` + CC(C)(C)O, for which the viscosity by setting is: (x2 = 0) 171.8 mPa·s; (x2 = 0.1) 131.4 mPa·s; (x2 = 0.1449) 115.6 mPa·s; (x2 = 0.4008) 49.8 mPa·s; (x2 = 0.4992) 34.1 mPa·s; (x2 = 0.6009) 23.3 mPa·s. The compound further showed a viscosity (x2 = 0.7007) of 18 mPa·s and a viscosity (x2 = 0.8983) of 11 mPa·s.

In turn, `CC(C)(C)O` + CCCCCC[n+]1ccn(C)c1.F[B-](F)(F)F yielded a viscosity (x1 = 1) of 4.444 mPa·s.
